Assay results reported in patent US5830910A (priority 1995, dated 1998).
Where two headings read alike, the source gives them in different places.

How the values were obtained:
Type in all cases: cell-based, rat
[1] = tested on: cultured hippocampal neurons; settings: 100 nM cotreated; 50 μM Aβ25-35, 24 hr
[2] = tested on: cultured hippocampal neurons; test: cells; settings: for viability at 0.1 µM: Rattus norvegicus, Hippocampal neuron
From the text: (§1) Dissociated embryonic rat hippocampal cell cultures were established and maintained. All procedures conformed with the NIH Guide for the Care and Use of Laboratory Animals and were approved by the University of Kentucky Animal Care and Use Committee. Cultures were maintained on a polyethyleneimine-coated substrate in plastic 35-mm dishes or 96 wall plates (for cell survival studies) or glass-bottom 35-mm dishes (for [Ca^2+ ]i imaging studies). The cell density was ^~ 70-100 cells/mm^2. Cells were maintained in Eagle's minimum essential medium supplemented 10% with fetal bovine serum and containing 20 mM sodium pyruvate. […] Aβ25-35 (Bachem, lot ZJ744) and Aβ1-40 (Bachem, lot ZK600) were stored in the lyophilized form, and stocks were prepared immediately before use by dissolving the peptide at a concentration of 1 mM in sterile distilled water. […] Glutamate and colchicine (Sigma) were prepared as 200-500x stocks in saline. Cytochalasins D and E (Sigma) and calcium ionophore 4-bromo-A23187 (Calbiochem) were prepared as 500x stocks in dimethyl sulfoxide. Vitamin E (α-tocopherol; Sigma) was prepared as a 500x stock in ethanol. Nordihydroguaiaretic acid and FeSo4 were prepared as 500x stocks in sterile water.
(§2) Neuronal survival was quantified by counting viable neurons in the same microscope fields (10x objective) immediately before experimental treatment and at time points after treatment. In addition, cells were grown in 96-well plates and Alamar blue fluorescence (Alamar Laboratories)was quantified by using a fluorescence plate reader. Alamar Blue is a non-fluorescent substrate that, after reduction by cell metabolites, becomes fluorescent. Usually neurons that died in the time intervals (20-48 h) between examination points were absent. Viability of the remaining neurons was assessed by morphological criteria. Neutrons with intact neurites of uniform diameter and a soma with a smooth, round appearance were considered viable, whereas neurons with fragmented neurites and a vacuolated or swollen soma were considered nonviable. Survival values were expressed as percentages of the initial number of neurons present before experimental treatment. Statistical comparisons were made using ANOVA and Scheffe post-hoc tests for pairwise comparisons.
Values represent the means and SEM of 4 separate cultures (cell counts) or 4 culture wells (Alamar blue assay). ^a p<0.05 compared to control value. ^b p<0.001 compound to control value. ^c p<0.01 compared to value for glutamate-treated cultures. ^d p<0.005 compared to value for glutamate-treated cultures. ^e p<0.001 compared to value for Aβ-treated cultures. ^f p<0.001 compared to value for cultures treated with 20 μM glutamate. ^g p<0.001 compared to cultures treated with 50 μM Aβ+20 μM glutamate. n.d. not determined.

[3] = tested on: cultured hippocampal neurons; test: cells
From the text: as §1, §2
FIG. 5. […] Cytochalasin D was added to cultures 30 min prior to exposure to glutamate, and control cultures were exposed to 0.2% dimethylsulfoxide.
(A) Neuronal survival was quantified in cultures that had been pretreated with the indicated concentrations of cytochalasin D and then exposed to 50 μM glutamate for 20 h. Values represent the means and SEM of determinations made in four separate cultures. […] Pairwise statistical comparisons of cytochalasin-treated cultures with the control survival (Scheffe's test) indicated 1 nM cytochalasin D, P<0.05; 10 nM cytochalasin D, P<0.001; 100 and 1000 nM cytochalasin D, P<0.0001.
(B) Neuronal survival was quantified in cultures that had been pretreated with either vehicle (control) or 100 nM cytochalasin D and then exposed to the indicated concentrations of glutamate for 20 h. Values represent the means and SEM of determinations made in four separate cultures. […] ANOVA with Scheffe's post hoc test.
FIG. 6. (A) Cultures were pretreated with 100 nM cytochalasin D (CyD), 100 nM cytochalasin E (CyE), or 100 nM colchicine (Colch). Cultures were then exposed to 50 μM glutamate for 20 h. Values for neuronal survival represent the means and SEM of determinations made in four separate cultures. *P<0.001 compared to control value. **P<0.001 compared to value for cultures exposed to glutamate alone.
[…] Values represent the means and SEM of determinations made in four separate cultures. *P<0.01 compared to value for cultures exposed to 20 μM glutamate alone. **P<0.05 compared to cultures exposed to 50 μM glutamate alone.

[4] = 100 μM Glutamate + 10 nM substance
[5] = 100 μM Glutamate + 100 nM substance

COc1cc2c(c(OC)c1OC)-c1ccc(OC)c(=O)cc1[C@@H](NC(C)=O)CC2 [Colchicine, colchicine, reference compound]
effect on Aβ neurotoxicity [1]: exacerbated Aβ toxicity
effect on neuronal survival, alone ([2]; 100 nM, alone): reduced survival
viability at 0.1 µM ([2]; 100 nM, alone, read-out: Neuron Survival (% of control), Alamar Blue Assay): 40 ± 5.2%
viability at 0.1 µM ([2]; 50 μM Aβ + 100 nM substance, read-out: Neuron Survival (% of control), Alamar Blue Assay): 23 ± 2.8%
viability at 0.1 µM ([2]; 100 μM Glutamate + 100 nM substance, read-out: Neuron Survival (% of control), Alamar Blue Assay): 12 ± 2.2%
viability at 0.1 µM ([2]; read-out: Neuron Survival (% of control), Cell Counts, 100 nM, alone): 85 ± 1.9%
protection against glutamate toxicity ([3]; 100 nM, 50 μM glutamate, 20 h): did not protect neurons against glutamate toxicity

C=C1[C@@H](C)[C@H]2[C@H](Cc3ccccc3)NC(=O)[C@]23[C@H](OC(C)=O)/C=C/[C@@](C)(O)C(=O)[C@@H](C)C/C=C/[C@H]3[C@@H]1O [Cytochalasin D, cytochalasin D]
effect on Aβ neurotoxicity [1]: essentially eliminated
Neuron Survival (% of control), Alamar Blue Assay ([2]; 10 nM, alone): 97 ± 7.8 % of control
Neuron Survival (% of control), Cell Counts ([2]; 10 nM, alone): 89 ± 2.4 % of control
Neuron Survival (% of control), Alamar Blue Assay ([2]; 100 nM, alone): 91 ± 5.9 % of control
Neuron Survival (% of control), Cell Counts ([2]; 100 nM, alone): 87 ± 2.2 % of control
Neuron Survival (% of control), Alamar Blue Assay ([2]; 50 μM Aβ + 10 nM substance): 55 ± 2.5 % of control
Neuron Survival (% of control), Alamar Blue Assay ([2]; 50 μM Aβ + 100 nM substance): 74 ± 1.3 % of control
Neuron Survival (% of control), Alamar Blue Assay ([2]; 50 μM Aβ + 20 μM Glut with 100 nM substance): 63 ± 2.5 % of control
Neuron Survival (% of control), Alamar Blue Assay [2, 4]: 43 ± 6.7 % of control
Neuron Survival (% of control), Cell Counts [2, 4]: 54 ± 7.4 % of control
Neuron Survival (% of control), Alamar Blue Assay [2, 5]: 42 ± 4.2 % of control
Neuron Survival (% of control), Cell Counts [2, 5]: 45 ± 9.8 % of control
effect on neuronal survival, alone ([2]; 1-100 nM, alone): no significant effect on neuronal survival
neuronal survival upon exposure to glutamate ([3]; 100 nM pretreatment, 10 μM (P<0.05), 50 μM (P<0.001), 100 μM (P<0.02) glutamate, 20 h): significantly greater
neurons killed upon exposure to glutamate ([3]; 100 nM pretreatment, 50 μM glutamate, 20 h): < 10%
effect on neuronal survival, alone ([3]; 10-100 nM alone, 20-h exposure): no significant effect on neuronal survival
